BindingDB's records for doi:10.1016/j.bmcl.2007.07.104 (Glaxosmithkline, 2007)

Molecular target: Proto-oncogene tyrosine-protein kinase receptor Ret (Homo sapiens, UniProt P07949)
Assay: RET Kinase Inhibition Assay
Conditions: pH 7.4; 22 °C

Proto-oncogene tyrosine-protein kinase receptor Ret, sequence (P07949 whole entry): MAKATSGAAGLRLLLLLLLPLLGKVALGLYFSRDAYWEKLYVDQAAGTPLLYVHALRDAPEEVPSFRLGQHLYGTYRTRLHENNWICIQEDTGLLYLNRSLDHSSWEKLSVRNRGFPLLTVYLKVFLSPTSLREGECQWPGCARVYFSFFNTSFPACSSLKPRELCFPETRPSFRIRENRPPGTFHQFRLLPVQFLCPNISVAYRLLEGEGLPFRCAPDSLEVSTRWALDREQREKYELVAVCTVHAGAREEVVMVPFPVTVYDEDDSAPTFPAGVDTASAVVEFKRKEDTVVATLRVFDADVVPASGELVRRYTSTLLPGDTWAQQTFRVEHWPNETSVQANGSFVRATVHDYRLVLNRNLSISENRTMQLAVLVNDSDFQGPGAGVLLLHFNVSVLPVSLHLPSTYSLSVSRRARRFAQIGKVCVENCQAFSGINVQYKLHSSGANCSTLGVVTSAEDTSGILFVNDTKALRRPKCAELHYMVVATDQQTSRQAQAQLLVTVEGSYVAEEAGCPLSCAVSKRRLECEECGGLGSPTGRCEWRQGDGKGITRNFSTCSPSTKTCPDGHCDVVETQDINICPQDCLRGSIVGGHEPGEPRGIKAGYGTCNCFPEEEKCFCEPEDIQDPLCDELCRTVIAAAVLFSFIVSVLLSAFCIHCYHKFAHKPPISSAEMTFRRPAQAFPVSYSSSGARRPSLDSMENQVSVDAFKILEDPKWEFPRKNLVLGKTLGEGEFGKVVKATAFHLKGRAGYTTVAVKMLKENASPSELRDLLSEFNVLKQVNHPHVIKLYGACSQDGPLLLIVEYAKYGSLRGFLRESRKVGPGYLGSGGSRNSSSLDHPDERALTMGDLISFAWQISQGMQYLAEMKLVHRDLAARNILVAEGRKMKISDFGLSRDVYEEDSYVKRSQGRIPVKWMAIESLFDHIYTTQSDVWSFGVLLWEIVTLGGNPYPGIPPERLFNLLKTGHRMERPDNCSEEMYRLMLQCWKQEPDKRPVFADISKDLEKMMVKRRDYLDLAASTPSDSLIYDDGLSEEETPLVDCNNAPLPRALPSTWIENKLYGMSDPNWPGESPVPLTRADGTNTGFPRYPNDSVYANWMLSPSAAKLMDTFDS

Q: Which IC50 does the source give for `Cc1ccc(O)cc1Nc1cc(C(F)(F)F)nc2ccc(-c3ccncc3)cc12` [4-methyl-3-{[6-(pyridin-4-yl)-2-(trifluoromethyl)quinolin-4-yl]amino}phenol] here?
A: > 1000 nM
